Source: patent US20100029542A1, “PROTEIN STERILISATION BY RADIATION AND ADDITION OF A STABILISING COMPOSITION” (priority 2006, published 2010)
Read-outs that look alike come from different tables or passages of the source.

Experiments:
[1] = target: T1, glucose oxidase (Aspergillus niger, UniProt P13006); experiment: Activity recovery of glucose oxidase in dry formulations following gamma irradiation; assay type: physicochemical; conditions: for Enzyme activity remaining after gamma-irradiation: glucose oxidase 350 μg mL^−1 prior to drying, dry, 25-40 kGy, ambient temperature
T1 construct: purchased Biocatalysts G575P
T1 sequence (P13006 17-605): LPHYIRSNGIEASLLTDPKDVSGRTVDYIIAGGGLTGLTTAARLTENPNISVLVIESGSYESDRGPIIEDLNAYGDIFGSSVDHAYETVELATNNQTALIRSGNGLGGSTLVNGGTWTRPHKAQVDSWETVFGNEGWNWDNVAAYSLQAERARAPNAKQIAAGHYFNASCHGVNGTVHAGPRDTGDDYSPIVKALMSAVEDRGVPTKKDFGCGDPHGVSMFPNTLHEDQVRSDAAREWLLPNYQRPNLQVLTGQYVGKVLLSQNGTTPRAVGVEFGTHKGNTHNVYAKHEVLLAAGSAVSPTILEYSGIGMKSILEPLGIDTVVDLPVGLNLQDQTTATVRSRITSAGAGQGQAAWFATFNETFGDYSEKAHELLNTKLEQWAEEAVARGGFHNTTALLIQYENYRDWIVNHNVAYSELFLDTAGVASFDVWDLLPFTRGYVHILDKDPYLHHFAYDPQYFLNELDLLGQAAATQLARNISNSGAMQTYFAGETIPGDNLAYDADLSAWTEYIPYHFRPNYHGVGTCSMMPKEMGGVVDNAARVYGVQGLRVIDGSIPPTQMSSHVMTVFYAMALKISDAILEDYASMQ
Experimental: (§1) In each example, an aqueous solution of a protein was prepared with selected additives in an Eppendorf tube or in a glass vial. Water was removed from the formulation by drying under a stream of nitrogen at 30° C. and subsequent incubation at atmospheric pressure in the presence of a dessicant. The Eppendorf tubes or the glass vials were sealed and delivered to an industrial sterilisation service for gamma irradiation, with a dose range typical for sterile medical products. The gamma-irradiated samples were reconstituted on their return and analysed for protein activity or structural integrity. The results were compared with those achieved using control (i.e. non-irradiated) samples.
(§2) The dry samples (approx. 20 μg in an Eppendorf tube) were gamma-irradiated by an industry-standard commercial sterilising service provided by Isotron PLC (Swindon, Wilts, UK), using a Cobalt 60 gamma source at ambient temperature. The radiation dose was in the range of 25-40 kGy.
(§3) The original solutions (i.e. solutions prior to drying) contained 350 μg mL^−1 of glucose oxidase and typically the total of 100 mM of protective compounds (i.e. 100 mM in case of a single compound, 50 mM+50 mM in case of two compounds, 33.3 mM+33.3 mM+33.3 mM in the case of three compounds etc.). The solutions were dried and gamma irradiated. Following the gamma irradiation, the samples, both pre- and post-gamma irradiated, were assayed for glucose oxidase activity. This was performed according to the following procedure:
Water was added to the sample to achieve 350 μg mL^−1 of glucose oxidase. 50 μL of the solution was added to 50 mL of deionised water. The following solutions were then added: • 10 mL of reagent mix (5 parts of 0.1 M sodium phosphate, pH 6+4 parts 2% w/w starch+1 part of 1 mg/mL lactoperoxidase enzyme); • 5 mL of 100 mM potassium iodide; and • 5 mL of 20% w/w glucose solution.
These were mixed together quickly. Time=0 was counted from the addition of the glucose. After 5 min, 1 ml of 5 M aq. hydrochloric acid was added to stop the reaction. The absorbance was then read at 630 nm using a Unicam UV-visible spectrophotometer (Type: Helios gamma). If the colour intensity was too great to allow an accurate reading, the sample was diluted with a defined volume of deionised water to bring the colour back on scale. The results were expressed as percentage recovery, by reference to the absorbance measured in the pre-gamma irradiation samples.

[2] = target: T2, human growth hormone (Homo sapiens, UniProt P01241); experiment: Recovery of structural integrity of human growth hormone in dry formulations following gamma irradiation (HPLC); assay type: physicochemical; conditions: as excipient in the formulation, disulphide bridge, HPLC
T2 construct: purchased National Institute of Biological Standards and Control; further samples on prescription from a GP surgery
T2 sequence (P01241 27-217): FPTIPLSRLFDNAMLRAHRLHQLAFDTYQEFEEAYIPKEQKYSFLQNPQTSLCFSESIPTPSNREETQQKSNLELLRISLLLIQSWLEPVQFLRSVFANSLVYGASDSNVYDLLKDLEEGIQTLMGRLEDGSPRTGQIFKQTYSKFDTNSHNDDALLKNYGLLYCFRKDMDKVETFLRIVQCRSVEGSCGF

[3] = cited from earlier work; for Rate constant k: Table 1, singlet oxygen scavengers, measured in specified solvents
[4] = target: T2, human growth hormone; experiment: Recovery of structural integrity of human growth hormone in dry formulations following gamma irradiation (HPLC); assay type: physicochemical; conditions: Table 7, singlet oxygen scavengers, structural integrity by HPLC, human growth hormone 2.5 mg mL^−1 prior to drying, 25-40 kGy
Experimental: as §1, §2
Mobile phase was prepared by mixing 71 parts (by volume) of a solution of TRIS (0.05 M, in water adjusted with hydrochloric acid to a pH of 7.5) and 29 parts (by volume) of n-propylalcohol. The mobile phase was filtered prior to its use. The liquid chromatograph (Agilent 1100 series) was equipped with a 214 nm detector and a 4.6×250 mm column (Phenomenex 00G-4167-E0) packed with butylsilyl silica gel with a granulometry of 5 μm and a porosity of 30 nm, maintained at 45° C. The flow rate was maintained at 0.5 mL min^−1. 15 μL of aqueous samples of human growth hormone (typically 1-2.5 mg mL^−1) were injected. Results were expressed as % of peak area corresponding to the gamma irradiated sample with respect to that measured in non-irradiated sample.

[5] = target: T3, catalase (Bos taurus, UniProt P00432); experiment: Activity recovery of catalase in dry formulations following gamma irradiation; assay type: physicochemical, bovine; conditions: Table 6, singlet oxygen scavengers; catalase 100 μg mL^−1 prior to drying; dry; 25-40 kGy, ambient temperature
T3 construct: Catalase (from bovine liver, Sigma C9322, 2380 U /mg solid); purchased Sigma C9322; host or cells: bovine liver
T3 sequence (P00432 2-527 limits assumed): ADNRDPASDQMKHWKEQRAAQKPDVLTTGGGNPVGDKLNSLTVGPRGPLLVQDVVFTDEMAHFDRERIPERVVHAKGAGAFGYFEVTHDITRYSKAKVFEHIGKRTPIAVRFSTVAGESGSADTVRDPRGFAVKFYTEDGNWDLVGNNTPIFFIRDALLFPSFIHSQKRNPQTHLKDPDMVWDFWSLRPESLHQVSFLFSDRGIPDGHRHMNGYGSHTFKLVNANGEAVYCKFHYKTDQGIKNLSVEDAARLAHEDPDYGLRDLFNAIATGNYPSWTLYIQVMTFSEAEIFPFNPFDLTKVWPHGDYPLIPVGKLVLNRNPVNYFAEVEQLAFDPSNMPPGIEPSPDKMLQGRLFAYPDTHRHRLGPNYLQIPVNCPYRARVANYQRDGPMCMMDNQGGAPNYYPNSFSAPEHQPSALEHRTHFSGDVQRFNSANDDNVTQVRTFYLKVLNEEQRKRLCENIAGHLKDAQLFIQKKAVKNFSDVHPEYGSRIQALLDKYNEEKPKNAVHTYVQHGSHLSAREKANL
Experimental: as §1, §2
as §3, with “contained 100” for “contained 350”, “of catalase” for “of glucose oxidase”
Water was added to the sample to achieve 100 μg mL^−1 of catalase. 100 μL of the solution was added to a mixture of 18 mL of PBS and 2 mL of hydrogen peroxide (30 mM in water) in a 125 mL polypropylene pot and mixed. The resulting mixture was incubated at room temperature precisely for 30 min. In the meantime, the following reagents were mixed in a plastic cuvette for spectrophotometric measurements: • 2.73 mL of citrate/phosphate buffer (0.1 M, pH 5.0) • 100 μL of tetramethylbenzidine (TMB) (3 mg/mL, dissolved in dimethyl sulphoxide (DMSO)) • 100 μL of lactoperoxidase
Following the 30 min incubation period, 70 μL of the catalase containing mixture was added to the cuvette and absorbance was read in approximately 30 s. The results were expressed as percentage recovery, by reference to the absorbance measured in the fresh samples (i.e. prior to incubation at increased temperature).

[6] = system: Sandostatin; experiment: Recovery of structural integrity of Sandostatin in dry formulations following gamma irradiation (HPLC); assay type: physicochemical; conditions: Table 8, singlet oxygen scavengers, structural integrity by HPLC, excipient:Sandostatin weight ratio 10:1, 25-40 kGy
Experimental: as §1, §2
Mobile phase A was 0.1 M triethylamine adjusted to pH 2.3 with phosphoric acid. Mobile phase B was acetonitrile. The mobile phases were filtered prior to their use. The following linear gradient was used: time 0: 90% A+10% B; time 35 min: 60% A+40% B. The liquid chromatograph (Agilent 1100 series) was equipped with a 214 nm detector, guard column and a 4.6×150 mm C18 column with a granulometry of 5 μm and a porosity of 30 nm, maintained at ambient temperature. The flow rate was maintained at 1.0 mL min^−1. Injection volume was 50 μL (typically sandostatin at 200 μg mL^−1). Results were expressed as % of main peak area (i.e. area of the peak corresponding to intact sandostatin measured in the gamma irradiated sample with respect to that measured in non-irradiated sample of identical composition). A chromatogram of a standard solution of sandostatin was recorded after every 12 samples to ensure that no drift in the position of the major peak had occurred. The control measurements ruled out any ambiguity in interpreting the chromatograms.

| SMILES | Compatibility of the compound with glucose oxidase ([1]; as excipient in the formulation) | Compatibility of the compound with human growth hormone [2] | Compatibility of the compound with human growth hormone ([2]; listed as N-acetylcysteine) | Rate constant k [3] | Enzyme activity remaining after gamma-irradiation ([1]; Table 3, prior-art antioxidants, vs non-irradiated) | Compatibility of the compound with human growth hormone ([2]; listed as cysteine) | Structural integrity remaining after gamma-irradiation (HPLC) [4] | Rate of reaction with singlet oxygen ([3]; Table 5) | Rate of reaction with singlet oxygen ([3]; Table 6) | Rate of reaction with singlet oxygen ([3]; Table 7) | Rate of reaction with singlet oxygen ([3]; Table 8) | Enzyme activity remaining after gamma-irradiation ([1]; Table 5, singlet oxygen scavengers) | Enzyme activity remaining after gamma-irradiation [5] | Enzyme activity remaining after gamma-irradiation [6] |
| --- | --- | --- | --- | --- | --- | --- | --- | --- | --- | --- | --- | --- | --- | --- |
| CC(=O)N[C@@H](CS)C(=O)O [N-Acetylcysteine] | **Compound was found incompatible with glucose oxidase | **Compound was found incompatible with human growth hormone | incompatibility with human growth hormone |  |  |  |  |  |  |  |  |  |  |  |
| N[C@@H](CS)C(=O)O [Cysteine] |  | **Compound was found incompatible with human growth hormone |  | k = 5 × 10^7 L mol^−1 s^−1 | 49.1% | incompatibility with human growth hormone |  |  |  |  |  |  |  |  |
| Cc1ncc(C[n+]2csc(CCO)c2C)c(N)n1 [Thiamine] |  |  |  | k = 6 × 10^7 L mol^−1 s^−1 |  |  | 48.8% | 6e+07 M⁻¹ s⁻¹ | 6e+07 M⁻¹ s⁻¹ | 6e+07 M⁻¹ s⁻¹ | 6e+07 M⁻¹ s⁻¹ | 43.1% | 26.1% | 87.7% |
